Measurements from BindingDB's records for patent US12398118 (Beijing Tide Pharmaceutical, 2025).

Key:
[1] = target: Rho-associated protein kinase 2 (Homo sapiens, UniProt O75116); experiment: Biological Assay
Experimental: Before the assay, the following working solutions as needed were formulated with corresponding reagents according to the instruction of the kinase detection kit: 1×kinase buffer, 5×STK-S2 substrate working solution (1.5 μM) and 5×ATP working solution (1.5 μM), 5×ROCK2 kinase working solution, 4×Streptavidin-XL665 working solution, and 4×STK-Ab-Cryptate 2 detection solution. Then the assay was performed according to the following procedure.A solution of a compound at a concentration of 10000 nM was prepared with the 1×kinase buffer containing 2.5% DMSO. Gradient dilution of the solution of the compound was performed with the kinase buffer containing DMSO, so as to obtain solutions of a test compound at 9 different concentrations. In addition to wells of test compounds, a positive well (containing all the reagents except the compound) and a negative well (containing all the reagents except the test compound and kinase) were set. Except for the control wells (positive and negative wells), a solution of a test compound (4 μL) was added to each of the reaction wells, and a solution of 2.5% DMSO was added to the control wells. Then the substrate ([…], i.e., 2 μL 5×STK-S2 substrate working solution) was added to each of the reaction wells. The 5×ROCK2 kinase working solution (2 μL, containing 1.4 ng ROCK2 kinase) was added to each of the reaction wells except for the negative well, the volume of which was made up with the 1×kinase buffer (2 μL). The 5×ATP working solution (2 μL) was added to each of the reaction wells, and the mixtures were incubated at room temperature for 2 hours. After the kinase reaction was complete, the 4×Streptavidin-XL665 working solution was added to each of the reaction wells, the solutions were mixed, followed by immediate addition of the 4×STK-Ab-Cryptate 2 detection solution (5 μL), and the mixtures were incubated at room temperature for 1 hour.

[2] = target: Rho-associated protein kinase 1 (Homo sapiens, UniProt Q13464); experiment: Biological Assay
Chain of Rho-associated protein kinase 1 (Q13464 whole entry): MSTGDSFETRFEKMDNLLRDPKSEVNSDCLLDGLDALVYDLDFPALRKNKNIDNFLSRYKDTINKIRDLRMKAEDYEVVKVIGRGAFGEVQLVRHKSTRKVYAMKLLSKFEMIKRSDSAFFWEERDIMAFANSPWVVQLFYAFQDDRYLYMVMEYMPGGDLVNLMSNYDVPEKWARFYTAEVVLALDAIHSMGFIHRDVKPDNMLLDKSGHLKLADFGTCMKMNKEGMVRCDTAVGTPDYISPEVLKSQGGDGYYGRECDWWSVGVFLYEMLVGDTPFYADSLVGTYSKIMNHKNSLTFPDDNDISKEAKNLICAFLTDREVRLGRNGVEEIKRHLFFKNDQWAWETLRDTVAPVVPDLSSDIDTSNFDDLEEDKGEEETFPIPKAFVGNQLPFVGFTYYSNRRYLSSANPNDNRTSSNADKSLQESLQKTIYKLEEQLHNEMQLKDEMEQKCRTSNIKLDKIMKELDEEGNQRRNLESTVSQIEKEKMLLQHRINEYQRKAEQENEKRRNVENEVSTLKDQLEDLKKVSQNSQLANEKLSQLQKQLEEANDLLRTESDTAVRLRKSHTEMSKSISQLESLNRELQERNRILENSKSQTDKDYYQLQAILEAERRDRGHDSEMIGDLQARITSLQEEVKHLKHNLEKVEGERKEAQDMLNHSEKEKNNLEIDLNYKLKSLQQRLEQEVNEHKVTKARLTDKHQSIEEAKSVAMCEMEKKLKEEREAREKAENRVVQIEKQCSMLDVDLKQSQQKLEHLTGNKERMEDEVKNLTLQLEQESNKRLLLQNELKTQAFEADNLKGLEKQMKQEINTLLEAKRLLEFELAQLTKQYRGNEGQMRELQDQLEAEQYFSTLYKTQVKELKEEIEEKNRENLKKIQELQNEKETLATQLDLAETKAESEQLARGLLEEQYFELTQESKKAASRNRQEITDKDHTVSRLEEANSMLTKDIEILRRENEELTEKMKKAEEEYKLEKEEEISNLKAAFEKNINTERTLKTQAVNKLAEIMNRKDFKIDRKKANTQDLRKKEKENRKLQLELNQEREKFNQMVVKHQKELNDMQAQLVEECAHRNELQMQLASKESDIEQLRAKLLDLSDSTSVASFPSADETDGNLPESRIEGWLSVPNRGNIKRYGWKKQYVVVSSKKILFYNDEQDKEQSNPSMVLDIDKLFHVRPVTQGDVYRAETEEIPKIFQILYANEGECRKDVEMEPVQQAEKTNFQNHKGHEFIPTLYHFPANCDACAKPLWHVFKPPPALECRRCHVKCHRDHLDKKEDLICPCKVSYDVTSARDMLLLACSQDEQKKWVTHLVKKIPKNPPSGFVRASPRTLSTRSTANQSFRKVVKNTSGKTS

Chain of Rho-associated protein kinase 2 (O75116 whole entry): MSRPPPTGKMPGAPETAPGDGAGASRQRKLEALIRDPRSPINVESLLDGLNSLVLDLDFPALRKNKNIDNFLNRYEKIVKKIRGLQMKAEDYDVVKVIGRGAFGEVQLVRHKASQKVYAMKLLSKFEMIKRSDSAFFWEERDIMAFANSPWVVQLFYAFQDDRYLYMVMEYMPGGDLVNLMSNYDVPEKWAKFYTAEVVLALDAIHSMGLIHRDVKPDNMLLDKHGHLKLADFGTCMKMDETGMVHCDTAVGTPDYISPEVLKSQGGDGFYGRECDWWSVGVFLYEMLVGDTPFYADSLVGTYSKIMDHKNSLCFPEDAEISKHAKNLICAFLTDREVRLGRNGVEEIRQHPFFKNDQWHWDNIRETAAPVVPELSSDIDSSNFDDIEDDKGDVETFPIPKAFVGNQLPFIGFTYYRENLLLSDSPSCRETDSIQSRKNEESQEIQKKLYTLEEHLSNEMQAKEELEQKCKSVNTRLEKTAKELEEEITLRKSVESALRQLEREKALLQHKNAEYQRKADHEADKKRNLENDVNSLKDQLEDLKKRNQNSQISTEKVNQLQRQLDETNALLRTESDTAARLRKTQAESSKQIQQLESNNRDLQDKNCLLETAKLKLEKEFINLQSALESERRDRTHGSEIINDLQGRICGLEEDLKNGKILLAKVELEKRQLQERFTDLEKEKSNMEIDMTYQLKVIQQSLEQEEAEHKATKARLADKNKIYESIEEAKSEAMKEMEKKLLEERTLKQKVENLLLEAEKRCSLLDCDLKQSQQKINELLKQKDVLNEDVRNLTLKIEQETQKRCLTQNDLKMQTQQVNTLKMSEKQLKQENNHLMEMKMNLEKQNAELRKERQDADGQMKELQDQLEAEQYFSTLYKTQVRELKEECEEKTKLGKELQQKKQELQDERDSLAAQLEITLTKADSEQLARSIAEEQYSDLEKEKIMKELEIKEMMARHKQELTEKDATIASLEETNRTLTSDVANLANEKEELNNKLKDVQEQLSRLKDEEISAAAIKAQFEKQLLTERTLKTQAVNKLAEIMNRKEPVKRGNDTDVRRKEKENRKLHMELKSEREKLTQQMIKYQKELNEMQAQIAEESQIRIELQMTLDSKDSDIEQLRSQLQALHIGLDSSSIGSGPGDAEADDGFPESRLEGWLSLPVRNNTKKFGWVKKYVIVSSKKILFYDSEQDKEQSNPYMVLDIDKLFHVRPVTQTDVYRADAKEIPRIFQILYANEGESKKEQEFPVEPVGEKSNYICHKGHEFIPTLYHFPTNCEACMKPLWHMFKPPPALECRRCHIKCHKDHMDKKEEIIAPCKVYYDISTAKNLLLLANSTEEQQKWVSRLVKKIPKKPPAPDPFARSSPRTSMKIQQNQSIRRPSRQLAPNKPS

Structure (SMILES) | IC50 [1] [nM] | IC50 [2] [nM]
CC(C)(C)OC(=O)N1CCc2sc(-c3ncc(F)c(Nc4ccc5c(=O)[nH]ccc5c4)n3)cc2C1 [US12398118, Compound C28] | 6 | > 10000
O=C(OC1CCC(F)(F)CC1)N1CCc2cc(-c3ncc(F)c(Nc4ccc5c(=O)[nH]ccc5c4)n3)ccc2C1 [US12398118, Compound C35] | 93 | > 10000
CC(OC(=O)N1CCc2sc(-c3ncc(F)c(Nc4ccc5c(c4)CCNC5=O)n3)cc2C1)C(F)(F)F (stereo not drawn) [US12398118, Compound C43] | 71 | 
CC(C)(C)OC(=O)N1CCc2sc(-c3ncc(F)c(Nc4ccc5c(N)nccc5c4)n3)cc2C1 [US12398118, Compound C45] | 491 | > 10000
CC(C)(C)CC(=O)N1CCc2sc(-c3ncc(F)c(Nc4ccc5c(=O)[nH]ccc5c4)n3)cc2C1 [US12398118, Compound C52] | 28 | > 10000
O=C(OCC(F)(F)F)N1Cc2ccc(-c3ncc(F)c(Nc4ccc5c(=O)[nH]ccc5c4)n3)cc2C1 [US12398118, Compound C72] | 24 | > 10000
O=C1NCCc2cc(Nc3nc(-c4cc5c(s4)CCN(C(=O)OCC(F)(F)F)C5)ncc3F)ccc21 [US12398118, Compound C75] | 37 | > 10000
